Data taken from US8618119B2, “Fused cyanopyridines and the use thereof” (Bayer Intellectual Property GmbH, priority 2007, dated 2013).

What was measured:
Type in all cases: cell-based
adenosine A1 receptor = target: T1, adenosine A1 receptor (Homo sapiens, UniProt P30542); test: Indirect determination of adenosine agonism by way of gene expression (luciferase reporter), A1 cells; conditions: CHO cells stably transfected with A1 receptor cDNA; 1 μM forskolin; 50% inhibition of luciferase answer
T1 construct: expressed in transfected cells; host or cells: CHO (Chinese Hamster Ovary)
T1 sequence (P30542 1-326): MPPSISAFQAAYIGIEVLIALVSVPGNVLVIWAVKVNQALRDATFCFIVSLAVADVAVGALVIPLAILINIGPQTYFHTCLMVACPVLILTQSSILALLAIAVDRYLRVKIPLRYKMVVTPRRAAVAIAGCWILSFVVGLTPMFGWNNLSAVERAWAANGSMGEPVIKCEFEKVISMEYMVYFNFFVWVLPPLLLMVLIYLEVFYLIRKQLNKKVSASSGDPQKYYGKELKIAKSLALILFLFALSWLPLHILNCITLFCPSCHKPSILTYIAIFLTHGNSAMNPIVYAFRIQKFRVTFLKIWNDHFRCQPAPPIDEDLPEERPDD
Text: (§1) B-1. Indirect Determination of the Adenosine Agonism by Way of Gene Expression
(§2) Cells of the CHO (Chinese Hamster Ovary) permanent line are transfected stably with the cDNA for the adenosine receptor subtypes A1, A2a and A2b. The adenosine A1 receptors are coupled to the adenylate cyclase by way of Gi proteins, while the adenosine A2a and A2b receptors are coupled by way of Gs proteins. In correspondence with this, the formation of cAMP in the cell is inhibited or stimulated, respectively. After that, expression of the luciferase is modulated by way of a cAMP-dependent promoter. The luciferase test is optimized, with the aim of high sensitivity and reproducibility, low variance and good suitability for implementation on a robot system, by varying several test parameters, such as cell density, duration of the growth phase and the test incubation, forskolin concentration and medium composition. The following test protocol is used for pharmacologically characterizing cells and for the robot-assisted substance screening:
(§3) The stock cultures are grown, at 37° C. and under 5% CO2, in DMEM/F12 medium containing 10% FCS (fetal calf serum) and in each case split 1:10 after 2-3 days. The test cultures are seeded in 384-well plates with 2000 cells per well and grown at 37° C. for approx. 48 hours. The medium is then replaced with a physiological sodium chloride solution (130 mM sodium chloride, 5 mM potassium chloride, 2 mM calcium chloride, 20 mM HEPES, 1 mM magnesium chloride hexahydrate, 5 mM sodium bicarbonate, pH 7.4). The substances to be tested, which are dissolved in DMSO, are pipetted into the test cultures (maximum final concentration of DMSO in the test mixture: 0.5%) in a dilution series of from 5×10^−11M to 3×10^−6M (final concentration). 10 minutes later, forskolin is added to the A1 cells and all the cultures are subsequently incubated at 37° C. for four hours. After that, 35 μl of a solution which is composed of 50% lysis reagent (30 mM disodium hydrogenphosphate, 10% glycerol, 3% TritonX100, 25 mM TrisHCl, 2 mM dithiotreitol (DTT), pH 7.8) and 50% luciferase substrate solution (2.5 mM ATP, 0.5 mM luciferin, 0.1 mM coenzyme A, 10 mM tricine, 1.35 mM magnesium sulfate, 15 mM DTT, pH 7.8) are added to the test cultures, which are shaken for approx. 1 minute and the luciferase activity is measured using a camera system. The EC50 values are determined, i.e., the concentrations at which 50% of the luciferase answer is inhibited in the case of the A1 cell, and, respectively, 50% of the maximum stimulation with the corresponding substance is achieved in the case of the A2b and A2a cells. […] Pharmacol., 357 (1998), 1-9).
(§4) Table 1 below lists the EC50 values of representative working examples for the receptor stimulation on adenosine A1, A2a and A2b receptor subtypes: […]

adenosine A2a receptor = target: T2, adenosine A2a receptor (Homo sapiens, UniProt P29274); test: Indirect determination of adenosine agonism by way of gene expression (luciferase reporter), A2a cells; conditions: CHO cells stably transfected with A2a receptor cDNA; 50% of maximum stimulation
T2 construct: expressed in transfected cells; host or cells: CHO (Chinese Hamster Ovary)
T2 sequence (P29274 whole entry): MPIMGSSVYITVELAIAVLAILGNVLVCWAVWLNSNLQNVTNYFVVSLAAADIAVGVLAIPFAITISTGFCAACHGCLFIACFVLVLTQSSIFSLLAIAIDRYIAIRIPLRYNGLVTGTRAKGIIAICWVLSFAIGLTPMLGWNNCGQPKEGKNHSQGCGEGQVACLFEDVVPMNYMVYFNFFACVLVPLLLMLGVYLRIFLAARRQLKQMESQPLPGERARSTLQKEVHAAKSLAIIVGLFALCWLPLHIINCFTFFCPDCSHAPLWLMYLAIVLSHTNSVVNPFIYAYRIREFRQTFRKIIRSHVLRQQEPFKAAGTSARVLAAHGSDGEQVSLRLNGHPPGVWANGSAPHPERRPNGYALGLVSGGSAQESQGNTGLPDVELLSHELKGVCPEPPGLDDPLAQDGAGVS
Text: as §1, §2, §3, §4

adenosine A2b receptor = target: T3, adenosine A2b receptor (Homo sapiens, UniProt P29275); test: Indirect determination of adenosine agonism by way of gene expression (luciferase reporter), A2b cells; conditions: CHO cells stably transfected with A2b receptor cDNA; 50% of maximum stimulation
T3 construct: expressed in transfected cells; host or cells: CHO (Chinese Hamster Ovary)
T3 sequence (P29275 1-332): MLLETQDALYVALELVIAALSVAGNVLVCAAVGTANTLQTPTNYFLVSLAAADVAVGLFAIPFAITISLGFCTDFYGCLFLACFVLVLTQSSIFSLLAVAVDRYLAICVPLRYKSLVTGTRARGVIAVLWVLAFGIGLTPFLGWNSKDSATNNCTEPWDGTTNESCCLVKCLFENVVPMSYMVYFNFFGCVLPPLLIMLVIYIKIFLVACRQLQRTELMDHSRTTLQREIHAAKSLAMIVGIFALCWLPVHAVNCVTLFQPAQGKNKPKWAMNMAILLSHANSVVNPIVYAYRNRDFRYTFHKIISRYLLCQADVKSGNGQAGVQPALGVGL
Text: as §1, §2, §3, §4

For `N#Cc1c(SCc2csc(-c3ccc(Cl)cc3)n2)nc2c(c1-c1ccc(OCCO)cc1)C(=O)CCC2` [Example 2, 2-({[2-(4-Chlorophenyl)-1,3-thiazol-4-yl]methyl}thio)-4-[4-(2-hydroxyethoxy)phenyl]-5-oxo-5,6,7,8-tetrahydroquinoline-3-carbonitrile], the EC50 (adenosine A1 receptor) was 7.9 nM, the EC50 (adenosine A2a receptor) was > 3000 nM and the EC50 (adenosine A2b receptor) was 207 nM.
In the case of `N#Cc1c(SCc2csc(-c3ccc(Cl)cc3)n2)nc2c(c1-c1ccc(OC[C@@H](O)CO)cc1)C(=O)CCC2` [Example 3, 2-({[2-(4-Chlorophenyl)-1,3-thiazol-4-yl]methyl}thio)-4-(4-{[(2S)-2,3-dihydroxypropyl]oxy}-phenyl)-5-oxo-5,6,7,8-tetrahydroquinoline-3-carbonitrile], the EC50 (adenosine A1 receptor) is reported as 2.6 nM, the EC50 (adenosine A2a receptor) is reported as > 3000 nM and the EC50 (adenosine A2b receptor) is reported as 66 nM.
For `Cc1nc(N)c2c(-c3ccc(OCCO)cc3)c(C#N)c(SCc3csc(-c4ccc(Cl)cc4)n3)nc2n1` [Example 9, 4-Amino-7-({[2-(4-chlorophenyl)-1,3-thiazol-4-yl]methyl}sulfanyl)-5-[4-(2-hydroxyethoxy)phenyl]-2-methylpyrido[2,3-d]pyrimidine-6-carbonitrile], the EC50 (adenosine A1 receptor) was < 0.04 nM, the EC50 (adenosine A2a receptor) was 68 nM and the EC50 (adenosine A2b receptor) was 38 nM.
`Cc1nc2nc(SCc3csc(-c4ccc(Cl)cc4)n3)c(C#N)c(-c3ccc(OCCO)cc3)c2c(=O)[nH]1` [Example 10, 7-({[2-(4-Chlorophenyl)-1,3-thiazol-4-yl]methyl}thio)-5-[4-(2-hydroxyethoxy)phenyl]-2-methyl-4-oxo-3,4-dihydropyrido[2,3-d]pyrimidine-6-carbonitrile] gave an EC50 (adenosine A1 receptor) of 0.4 nM, an EC50 (adenosine A2a receptor) of 1370 nM and an EC50 (adenosine A2b receptor) of 213 nM.
With `N#Cc1c(SCc2csc(-c3ccc(Cl)cc3)n2)nc2[nH]c(=O)[nH]c(=O)c2c1-c1ccc(OCCO)cc1` [Example 12, 7-({[2-(4-Chlorophenyl)-1,3-thiazol-4-yl]methyl}sulfanyl)-5-[4-(2-hydroxyethoxy)phenyl]-2,4-dioxo-1,2,3,4-tetrahydropyrido[2,3-d]pyrimidine-6-carbonitrile] the EC50 (adenosine A1 receptor) was 2 nM, the EC50 (adenosine A2a receptor) was 2000 nM and the EC50 (adenosine A2b receptor) was 880 nM.
Compound `COC(=O)c1ccc(-c2nc(CSc3nc4c(c(-c5ccccc5)c3C#N)CCC4)cs2)cc1` [Example 13, Methyl 4-(4-{[(3-cyano-4-phenyl-6,7-dihydro-5H-cyclopenta[b]pyridin-2-yl)sulfanyl]methyl}-1,3-thiazol-2-yl)benzoate] has an EC50 (adenosine A1 receptor) of 21 nM and an EC50 (adenosine A2b receptor) of 1250 nM.
